Laboratory results as given in US8969554B2, “6-acyl-1,2,4-triazine-3,5-dione derivative and herbicides” (Kumiai Chemical Industry Co., Ltd., priority 2010, dated 2015).

Legend:
Type in all cases: in vivo
Parameters in all cases: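 index 0 to 10 in 10% steps of herbicidal effect with 10 meaning complete death and 0 below 10%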
Monochoria vaginalis = assay: Herbicidal activity by paddy field soil treatment (Test Example 1); details: 1000 g of effective component per hectare, evaluated on day 21 after the treatment, criteria of Table 72
Experimental: (§1) Test for Determining Herbicidal Activity by Paddy Field Soil Treatment A 100 cm^2 wide plastic pot was filled with a paddy field soil and, after watering and shuffling, seeds of each of Echinochloa oryzicola, Monochoria vaginalis, and Scirpus juncoides Rocxb. were sowed and watered to a depth of 3 cm. On the next day, the wettable powder obtained in view of Formulation example 1 was diluted with water and applied on water surface. The application amount was 1000 g of effective component per hectare. After that, the plants were cultivated in a greenhouse, and on day 21 after the treatment, evaluation was made by the criteria of Table 72 for determining the herbicidal effects. [table]

Scirpus juncoides Rocxb. = assay: as above; details: applied on water surface, 1000 g of effective component per hectare, day 21 after the treatment
Experimental: as §1

A. retroflexus [1] = assay: Herbicidal activity by field soil treatment (Test example 2); details: 1000 g effective component per hectare, day 21 after the treatment
Experimental: (§2) [table] Test for Determining Herbicidal Activity by Field Soil Treatment A 80 cm^2 wide plastic pot was filled with a field soil and seeds of each of Echinochloa crus-galli, foxtail, Indian millet, and A. retroflexus were sowed and then covered with soil. The wettable powder produced with reference to the Formulation example 1 was diluted water, and applied on the soil surface by using a small sprayer in an amount of 1000 liters per hectare so that the effective component is 1000 g per hectare. After that, the plants were cultivated in a greenhouse, and on day 21 after the treatment, evaluation was made by the criteria described in Table 72 for determining the herbicidal effects.

Echinochloa crus-galli [2] = assay: as above; details: 1000 g effective component per hectare, day 21 after the treatment
Experimental: as §2

Indian millet [3] = assay: as above; details: 1000 g effective component per hectare, day 21 after the treatment
Experimental: as §2

A. retroflexus [4] = assay: Herbicidal activity by field foliage treatment (Test example 3); details: 1000 g effective component per hectare, day 14 after the treatment
Experimental: (§3) [table] Test for Determining Herbicidal Activity by Field Foliage Treatment A 80 cm^2 wide plastic pot was filled with a field soil and seeds of each of Indian millet and A. retroflexus were sowed and then incubated for 2 weeks in a green house. The wettable powder produced with reference to the Formulation example 1 was diluted water, and applied from the air to entire body of the plant as foliage treatment by using a small sprayer in an amount of 1000 liters per hectare so that the effective component is 1000 g per hectare. After that, the plants were cultivated in a greenhouse, and on day 14 after the treatment, evaluation was made by the criteria described in Table 72 for determining the herbicidal effects.

Indian millet [5] = assay: as above; details: 1000 g effective component per hectare, day 14 after the treatment
Experimental: as §3

Echinochloa crus-galli [6] = assay: as above; details: 1000 g effective component per hectare, day 14 after the treatment
Experimental: as §3, with “Test example 3” for “[table]”

Echinochloa oryzicola = assay: Herbicidal activity by paddy field soil treatment (Test Example 1); details: 1000 g of effective component per hectare, evaluated on day 21 after the treatment, criteria of Table 72
Experimental: as §1

SMILES | Herbicidal effects index number, Monochoria vaginalis (Monochoria vaginalis) | herbicidal effect index, S. juncoides Rocxb. (Scirpus juncoides Rocxb.) | herbicidal effect index, Amaranthus retroflexus (A. retroflexus [1]) | herbicidal effect index, Echinochloa crus-galli (Echinochloa crus-galli [2]) | herbicidal effect index, Abutilon theophrasti (Indian millet [3]) | herbicidal effect index, Amaranthus retroflexus (A. retroflexus [4]) | herbicidal effect index, Abutilon theophrasti (Indian millet [5]) | herbicidal effect index, Echinochloa crus-galli (Echinochloa crus-galli [6]) | Herbicidal effects index number, Echinochloa oryzicola (Echinochloa oryzicola)
Cc1ccc(-n2c(=O)c(C(=O)C3=C(O)CCCC3=O)nn(C)c2=O)nc1 [I-182] | 8 | 9 | 10 | 7 | 10 | 9 | 9 | 8 | 
Cn1nc(C(=O)C2=C(O)CCCC2=O)c(=O)n(N2CCSCC2)c1=O [I-203] | 10 | 10 | 7 | 9 |  | 10 | 9 | 6 | 10
COc1ccc(-n2c(=O)c(C(=O)C3=C(O)CCCC3=O)nn(C)c2=O)cc1C [I-149] | 10 | 10 | 10 | 8 | 10 | 10 | 10 | 8 | 9
Cn1nc(C(=O)C2=C(O)CCCC2=O)c(=O)n(-c2cccc(C(F)(F)F)c2)c1=O [I-64] | 10 | 10 | 10 | 10 | 10 | 10 | 10 | 10 | 10
COc1ccc(-n2c(=O)c(C(=O)C3=C(O)CCCC3=O)nn(C)c2=O)cc1Cl [I-119] | 10 | 10 | 10 | 8 | 9 | 10 | 9 | 9 | 9
CCON=C(C)Cn1c(=O)c(C(=O)C2=C(O)CCCC2=O)nn(C)c1=O [I-478] | 10 | 9 | 10 | 9 | 10 | 10 | 9 | 8 | 10
CC(C)Cn1c(=O)c(C(=O)C2=C(O)CCCC2=O)nn(-c2ccccn2)c1=O [I-307] | 9 | 8 | 10 | 7 | 9 | 9 | 10 |  | 8
Cc1cnc(-n2c(=O)c(C(=O)C3=C(O)CCCC3=O)nn(C)c2=O)cn1 [I-292] | 10 | 10 |  | 7 | 9 | 10 | 10 | 8 | 10
Cn1nc(C(=O)C2=C(O)CCCC2=O)c(=O)n(-c2ccc(F)cc2)c1=S [I-480] |  | 10 | 10 | 8 | 10 | 10 | 10 | 9 | 10
Cc1ccc(-n2c(=O)c(C(=O)C3=C(O)CCCC3=O)nn(C)c2=O)c(F)c1 [I-108] | 10 | 10 | 10 |  | 8 | 10 | 9 |  | 10
COc1ccc(-n2c(=O)c(C(=O)C3=C(O)CCCC3=O)nn(C)c2=O)c(OC)c1 [I-96] | 10 | 10 | 10 |  | 10 | 10 | 9 | 7 | 8
CSc1c(Cl)cc(-n2c(=O)c(C(=O)C3=C(O)CCCC3=O)nn(C)c2=O)cc1Cl [I-300] | 10 | 10 | 10 |  | 10 | 10 | 8 | 9 | 10
CCOc1ccc(-n2c(=O)c(C(=O)C3=C(O)CCCC3=O)nn(C)c2=O)cc1 [I-268] | 10 | 10 | 10 |  | 8 | 10 | 9 | 7 | 10
Cn1nc(C(=O)C2=C(O)CCCC2=O)c(=O)n(-c2ccc3c(c2)OCO3)c1=O [I-170] | 10 | 10 | 10 |  | 10 | 10 | 10 | 10 | 10
CCCCCCn1c(=O)c(C(=O)C2=C(O)CCCC2=O)nn(C)c1=O [I-9] | 8 | 8 | 10 | 7 |  | 10 | 10 | 10 | 8
Cc1ccc(-n2c(=O)c(C(=O)C3=C(O)CCCC3=O)nn(C)c2=O)cc1 [I-59] | 10 | 10 | 10 |  | 10 | 10 | 10 | 7 | 10
Cc1ccc(-n2c(=O)c(C(=O)C3=C(O)CCCC3=O)nn(C)c2=S)nc1 [I-291] | 10 | 10 | 8 |  | 10 | 10 | 9 |  | 
